Laboratory results taken from the supplement of paper PMC10307832.

How the values were obtained:
Test in all cases: relative viability (nuclei count vs DMSO), 5 days (fraction); higher = more cells survive
RU-SKI 43 + Phenformin = compound: CC[C@@H](C)CNCC(=O)N1CCC2=C([C@@H]1COC3=CC=CC(=C3)C)C=CS2 [RU-SKI 43] + N=C(N)NC(=N)NCCc1ccccc1 [Phenformin] (partner 250 µM)
In short: (§1)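 Lung cancer cell lines, seeded in 1536-well plates, were treated the following day by pin tool with a single drug or with five library-drug doses (not always all listed) in √10 steps on top of a fixed anchor-drug dose. Cells were fixed and nuclei stained in one step after 5 days, and nuclei were counted. Relative viability is the nuclei count for treated wells divided by that for vehicle wells, reported as medians of duplicate plates.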

RU-SKI 43 + Decitabine = compound: CC[C@@H](C)CNCC(=O)N1CCC2=C([C@@H]1COC3=CC=CC(=C3)C)C=CS2 [RU-SKI 43] + Nc1ncn([C@H]2C[C@H](O)[C@@H](CO)O2)c(=O)n1 [Decitabine] (partner 2 µM)
In short: as §1

Irinotecan + Alpelisib = compound: CCc1c2c(nc3ccc(OC(=O)N4CCC(N5CCCCC5)CC4)cc13)-c1cc3c(c(=O)n1C2)COC(=O)[C@]3(O)CC [Irinotecan] + Cc1nc(NC(=O)N2CCC[C@H]2C(N)=O)sc1-c1ccnc(C(C)(C)C(F)(F)F)c1 [Alpelisib] (partner 2 µM)
In short: as §1

MK-8033 + Lapatinib = compound: Cn1cc(-c2cnc3ccc4ccc(CS(=O)(=O)NCc5ccccn5)cc4c(=O)c3c2)cn1 [MK-8033] + CS(=O)(=O)CCNCc1ccc(-c2ccc3ncnc(Nc4ccc(OCc5cccc(F)c5)c(Cl)c4)c3c2)o1 [Lapatinib] (partner 2 µM)
In short: as §1

Cell Line	relative viability (RU-SKI 43 + Phenformin; first compound 0.1 µM)	relative viability (RU-SKI 43 + Phenformin; first compound 0.3162 µM)	relative viability (RU-SKI 43 + Phenformin; first compound 1 µM)	relative viability (RU-SKI 43 + Phenformin; first compound 3.162 µM)	relative viability (RU-SKI 43 + Phenformin; first compound 10 µM)	relative viability (RU-SKI 43 + Decitabine; first compound 0.1 µM)	relative viability (RU-SKI 43 + Decitabine; first compound 0.3162 µM)	relative viability (RU-SKI 43 + Decitabine; first compound 1 µM)	relative viability (RU-SKI 43 + Decitabine; first compound 3.162 µM)	relative viability (RU-SKI 43 + Decitabine; first compound 10 µM)	relative viability (Irinotecan + Alpelisib; first compound 0.6325 µM)	relative viability (Irinotecan + Alpelisib; first compound 2 µM)	relative viability (Irinotecan + Alpelisib; first compound 6.325 µM)	relative viability (Irinotecan + Alpelisib; first compound 20 µM)	relative viability (MK-8033 + Lapatinib; first compound 0.02 µM)	relative viability (MK-8033 + Lapatinib; first compound 0.06325 µM)	relative viability (MK-8033 + Lapatinib; first compound 0.2 µM)	relative viability (MK-8033 + Lapatinib; first compound 2 µM)	relative viability (MK-8033 + Lapatinib; first compound 0.6325 µM)
HCC-78	0.735	0.735	0.933	0.739	0.692	0.676	0.602	0.781	0.667	0.639	0.38	0.248	0.195	0.211	0.765	0.811	0.65	0.94	–
NCI-H441	0.966	1.02	0.836	0.844	0.729	0.212	0.238	0.228	0.229	0.223	0.68	0.513	0.336	0.5	–	–	–	–	–
NCI-H1299	–	–	–	–	–	–	–	–	–	–	0.919	0.918	0.801	0.36	0.989	0.947	0.964	0.982	0.965
LU99A	0.862	0.955	0.863	0.871	0.654	0.746	1.1	1.05	0.91	0.711	0.219	0.23	0.225	0.219	1.03	0.892	0.97	0.764	0.893
NCI-H1651	0.351	0.418	0.363	0.342	0.277	0.624	0.593	0.7	0.593	0.589	0.862	0.705	0.246	0.205	0.842	0.658	0.874	0.762	0.892
HARA	0.531	0.471	0.491	0.457	0.408	0.497	0.682	0.566	0.46	0.47	0.557	0.211	0.215	0.177	0.594	0.632	0.763	0.828	0.69
RERF-LC-KJ	0.374	0.418	0.347	0.417	0.346	0.782	0.832	0.69	0.681	0.58	–	0.835	0.501	0.454	0.901	0.823	0.854	0.815	0.798
LCLC-103H	0.318	0.388	0.435	0.346	0.343	0.728	0.762	0.732	0.764	0.72	0.812	0.345	0.33	0.368	–	–	–	–	–
SK-LU-1	0.531	0.689	0.555	0.715	0.502	0.571	0.684	0.612	0.593	0.535	0.459	0.541	0.351	0.273	0.893	0.82	0.879	0.859	0.807
Calu-6	–	–	–	–	–	–	–	–	–	–	0.826	0.543	0.291	0.119	1.06	1.03	0.971	1.19	1.15
NCI-H1648	–	–	–	–	–	0.452	0.535	0.466	0.554	0.444	–	–	–	–	–	–	–	–	–
NCI-H522	0.663	0.746	0.749	0.647	0.684	0.682	0.568	0.669	0.768	0.677	–	–	–	–	–	–	–	–	–
LOU-NH91	0.705	0.673	0.733	0.715	0.666	0.786	0.828	0.809	0.805	0.824	0.663	0.596	0.422	0.301	0.785	–	0.735	0.745	0.772
HCC-366	0.616	0.676	0.652	0.582	0.453	0.3	0.399	0.328	0.354	0.352	0.404	0.187	0.0425	0.0448	1.04	0.994	0.972	1.05	1.05
CAL-12T	0.645	0.65	0.616	0.596	0.589	–	–	–	–	–	1.08	1.19	0.422	0.309	0.604	0.566	0.601	0.591	0.868
PC-3 [JPC-3]	0.466	0.484	0.457	0.52	0.511	0.789	0.894	0.804	0.852	0.749	0.814	0.413	0.319	0.305	0.449	–	0.444	0.482	0.477
NCI-H2087	0.46	0.552	0.477	0.526	0.406	0.324	0.283	0.281	0.247	0.238	0.437	0.22	0.215	0.211	0.991	1.11	1.11	0.98	0.859
NCI-H1395	0.485	0.453	0.476	0.421	0.433	0.661	0.858	0.776	0.714	0.696	–	0.707	0.52	0.246	1.1	0.958	0.858	1.35	0.931
ABC-1	0.189	0.239	0.227	0.255	0.213	1.01	1.14	1.2	1.07	1.17	–	0.654	0.439	0.362	1.19	1.35	0.955	1.43	1.1
NCI-H2023	0.421	0.471	0.466	0.43	0.396	0.211	0.254	0.22	0.246	0.237	0.607	0.468	0.202	0.0912	0.923	0.701	0.624	0.523	0.59
